Data from article PMC12434670 (Journal of Medicinal Chemistry, 2025).
Where two headings read alike, the source gives them in different places.

Tests used:
[1] = test system: A/H1N1 virus A/Virginia/ATCC3/2009 (Virg09); test: microbe, parasite or virus in culture; format: cell-based, influenza A virus; conditions: for EC50: Influenza A virus, MDCK
[2] = test system: A/H1N1 virus A/PR/8/34 (PR8); test: microbe, parasite or virus in culture; format: cell-based; conditions: Influenza A virus, MDCK
in vitro = conditions: dog
MDCK cells = conditions: dog
A/H1N1 virus = test: microbe, parasite or virus in culture; format: cell-based, influenza A virus
[3] = read-out: Antiviral EC50 for Virg09 virus
[4] = read-out: Antiviral EC50 for PR8 virus
[5] = read-out: Antiviral EC50 against A/H1N1 virus, Virg09 strain, MTS
[6] = read-out: Antiviral EC50 against A/H1N1 virus, Virg09 strain, Microscopy
[7] = read-out: Antiviral EC50 against A/H1N1 virus, PR8 strain, MTS
[8] = read-out: Antiviral EC50 against A/H1N1 virus, PR8 strain, Microscopy

## Cc1cc(CNC(=O)c2ccccc2)c(C)s1 [Compound 40, N-((2,5-Dimethylthiophen-3-yl)methyl)benzamide]
[1]; [3]
  EC50: > 100 µM
[2]; [4]
  EC50: > 100 µM

## Cc1sccc1CNC(=O)c1cc(Cl)cc(C(F)(F)F)c1 [Compound 49, 3-Chloro-N-((2-methylthiophen-3-yl)methyl)-5-(trifluoromethyl)benzamide]
In vitro
  CC50: > 100 µM
[1]; [5]
  EC50: 0.37 ± 0.16 µM
[1]; [6]
  EC50: 0.48 ± 0.07 µM
MDCK cells
  Cytotoxicity MCC, Microscopy: 78 ± 22 µM
[2]; [7]
  EC50: 0.14 ± 0.04 µM
[2]; [8]
  EC50: 0.14 ± 0.05 µM

## COc1ccc(C(=O)NCc2cc(C)sc2C)cc1 [Compound 43, N-((2,5-Dimethylthiophen-3-yl)methyl)-4-methoxybenzamide]
[1]; [3]
  EC50: > 100 µM
[2]; [4]
  EC50: > 100 µM

## Cc1cc(CNC(=O)c2cc(F)cc(C(F)(F)F)c2)cs1 [Compound 45, 3-Fluoro-N-((5-methylthiophen-3-yl)methyl)-5-(trifluoromethyl)benzamide]
In vitro
  CC50: 67 ± 1 µM
[1]; [5]
  EC50: 0.39 ± 0.18 µM
[1]; [6]
  EC50: 1.6 ± 0.5 µM
MDCK cells
  Cytotoxicity MCC, Microscopy: 78 ± 22 µM
[2]; [7]
  EC50: 0.68 ± 0.51 µM
[2]; [8]
  EC50: 0.26 ± 0.02 µM

## Cc1cc(CNC(=O)c2ccc(Cl)c(Cl)c2)c(C)s1 [Compound 44, 3,4-Dichloro-N-((2,5-dimethylthiophen-3-yl)methyl)benzamide]
[1]; [3]
  EC50: > 100 µM
[2]; [4]
  EC50: > 100 µM

## Cc1cc(CNC(=O)c2cccc(Cl)c2)c(C)s1 [Compound 32, 3-Chloro-N-[(2,5-dimethylthiophen-3-yl)methyl]benzamide]
[1]; [3]
  EC50: > 100 µM
[2]; [4]
  EC50: > 100 µM

## Cc1cc(CNC(=O)c2cc(Br)cc(Br)c2)c(C)s1 [Compound 28, 3,5-Dibromo-N-[(2,5-dimethylthiophen-3-yl)methyl]benzamide]
[1]; [3]
  EC50: > 100 µM
[2]; [4]
  EC50: > 100 µM

## Cc1cc(CNC(=O)c2cc(Cl)cc(C(F)(F)F)c2)c(C)o1 [Compound 55, 3-Chloro-N-((2,5-dimethylfuran-3-yl)methyl)-5-(trifluoromethyl)benzamide]
In vitro
  CC50: 29 µM
[1]; [5]
  EC50: 1.1 ± 0.3 µM
[1]; [6]
  EC50: > 100 µM
MDCK cells
  Cytotoxicity MCC, Microscopy: 33 ± 0 µM
[2]; [7]
  EC50: 0.24 ± 0.08 µM
[2]; [8]
  EC50: 0.54 ± 0.37 µM

## Cc1cc(CNC(=O)c2cc(C(F)(F)F)c(F)c(F)c2F)c(C)s1 [Compound 36, N-((2,5-Dimethylthiophen-3-yl)methyl)-2,3,4-trifluoro-5-(trifluoromethyl)benzamide]
A/H1N1 virus
  Antiviral activity against A/H1N1 virus (in words): abolished the antiviral effect
[1]; [3]
  EC50: > 100 µM
[2]; [4]
  EC50: > 100 µM

## Cc1sccc1CNC(=O)c1cc(F)cc(C(F)(F)F)c1 [Compound 46, 3-Fluoro-N-((2-methylthiophen-3-yl)methyl)-5-(trifluoromethyl)benzamide]
In vitro
  CC50: > 100 µM
[1]
  ΔΔG (exp), change VF-57a → labelled compound: 1.8 kcal/mol
  ΔΔG (exp), change labelled compound → VF-57a: –1.8 kcal/mol
[1]; [5]
  EC50: 6.8 ± 6.5 µM
[1]; [6]
  EC50: 8.3 ± 5.1 µM
MDCK cells
  Cytotoxicity MCC, Microscopy: 67 ± 33 µM
[2]; [7]
  EC50: 0.23 ± 0.08 µM
[2]; [8]
  EC50: 0.17 ± 0.04 µM

## Cc1cc(CNC(=O)c2cc(Cl)cc(C(F)(F)F)c2Cl)cs1 [Compound 53, 2,5-Dichloro-N-((5-methylthiophen-3-yl)methyl)-3-(trifluoromethyl)benzamide]
In vitro
  CC50: > 100 µM
[1]; [5]
  EC50: 31 ± 3 µM
[1]; [6]
  EC50: > 100 µM
MDCK cells
  Cytotoxicity MCC, Microscopy: >100 µM
[2]; [7]
  EC50: 17 ± 8 µM
[2]; [8]
  EC50: > 100 µM

## Cc1cc(CNC(=O)c2cccc([N+](=O)[O-])c2)c(C)s1 [Compound 34, N-[(2,5-Dimethylthiophen-3-yl)methyl]-3-nitrobenzamide]
[1]; [3]
  EC50: > 100 µM
[2]; [4]
  EC50: > 100 µM

## Cc1cc(CNC(=O)c2cc(Cl)cc(Cl)c2)c(C)s1 [Compound 27, 3,5-Dichloro-N-[(2,5-dimethylthiophen-3-yl)methyl]benzamide]
[1]; [3]
  EC50: > 100 µM
[2]; [4]
  EC50: > 100 µM

## O=C(NCc1cc[nH]n1)c1cc(F)cc(C(F)(F)F)c1 [Compound 60, N-((1H-Pyrazol-3-Yl)methyl)-3-fluoro-5-(trifluoromethyl)benzamide]
[1]; [3]
  EC50: > 100 µM
[2]; [4]
  EC50: > 100 µM

## Cc1cc(CNC(=O)c2cc(F)cc(C(F)(F)F)c2)c(C)o1 [Compound 54, N-((2,5-Dimethylfuran-3-yl)methyl)-3-fluoro-5-(trifluoromethyl)benzamide]
In vitro
  CC50: 79 ± 5 µM
[1]; [5]
  EC50: 0.54 ± 0.06 µM
[1]; [6]
  EC50: 3.6 ± 2.8 µM
MDCK cells
  Cytotoxicity MCC, Microscopy: 100 ± 0 µM
[2]; [7]
  EC50: 0.47 ± 0.19 µM
[2]; [8]
  EC50: 0.54 ± 0.17 µM

## O=C(NCc1ccoc1)c1cc(F)cc(C(F)(F)F)c1 [Compound 56, 3-Fluoro-N-(Furan-3-ylmethyl)-5-(trifluoromethyl)benzamide]
[1]; [3]
  EC50: > 100 µM
[2]; [4]
  EC50: > 100 µM

## O=C(NCc1cscn1)c1cc(F)cc(C(F)(F)F)c1 [Compound 62, 3-Fluoro-N-(Thiazol-4-ylmethyl)-5-(trifluoromethyl)benzamide]
[1]; [3]
  EC50: > 100 µM
[2]; [4]
  EC50: > 100 µM

## Cc1cc(CNC(=O)c2cc(Cl)cc(C(F)(F)F)c2)cs1 [Compound 48, 3-Chloro-N-((5-methylthiophen-3-yl)methyl)-5-(trifluoromethyl)benzamide]
In vitro
  CC50: > 100 µM
[1]; [5]
  EC50: 0.15 ± 0.12 µM
[1]; [6]
  EC50: 1.9 ± 1.1 µM
MDCK cells
  Cytotoxicity MCC, Microscopy: >100 µM
[2]; [7]
  EC50: 0.34 ± 0.18 µM
[2]; [8]
  EC50: 0.46 ± 0.14 µM

## O=C(NCc1cncs1)c1cc(F)cc(C(F)(F)F)c1 [Compound 57, 3-Fluoro-N-(Thiazol-5-ylmethyl)-5-(trifluoromethyl)benzamide]
[1]; [3]
  EC50: > 100 µM
[2]; [4]
  EC50: > 100 µM

## Cc1cc(CNC(=O)c2cccc(F)c2)c(C)s1 [Compound 30, N-[(2,5-Dimethylthiophen-3-yl)methyl]-3-fluorobenzamide]
[1]; [3]
  EC50: > 100 µM
[2]; [4]
  EC50: > 100 µM

## Cc1cc(CNC(=O)c2cc(F)cc(F)c2)c(C)s1 [Compound 26, 3,5-Difluoro-N-[(2,5-dimethylthiophen-3-yl)methyl]benzamide]
[1]; [3]
  EC50: > 100 µM
[2]; [4]
  EC50: > 100 µM

## NC(=O)c1ncn([C@@H]2O[C@H](CO)[C@@H](O)[C@H]2O)n1 [Ribavirin, reference compound]
In vitro
  CC50: > 250 µM
[1]; [5]
  EC50: 20 ± 2 µM
[1]; [6]
  EC50: 25 µM
MDCK cells
  Cytotoxicity MCC, Microscopy: 80 ± 20 µM
[2]; [7]
  EC50: 38 ± 3 µM
[2]; [8]
  EC50: 27 ± 1 µM

## O=C(NCc1ccsc1)c1cc(F)cc(C(F)(F)F)c1 [Compound 47, 3-Fluoro-N-(Thiophen-3-ylmethyl)-5-(trifluoromethyl)benzamide]
In vitro
  CC50: > 100 µM
[1]
  ΔΔG (exp), change VF-57a → labelled compound: 1.9 kcal/mol
  ΔΔG (exp), change labelled compound → VF-57a: –1.9 kcal/mol
[1]; [5]
  EC50: 7.2 ± 4.1 µM
[1]; [6]
  EC50: 20 ± 8 µM
MDCK cells
  Cytotoxicity MCC, Microscopy: >100 µM
[2]; [7]
  EC50: 0.42 ± 0.1 µM
[2]; [8]
  EC50: 0.44 ± 0.16 µM

## Cc1cc(CNC(=O)c2cc(Cl)c(F)c(C(F)(F)F)c2)cs1 [Compound 52, 3-Chloro-4-fluoro-N-((5-methylthiophen-3-yl)methyl)-5-(trifluoromethyl)benzamide]
In vitro
  CC50: > 100 µM
[1]; [5]
  EC50: > 100 µM
[1]; [6]
  EC50: > 100 µM
MDCK cells
  Cytotoxicity MCC, Microscopy: >100 µM
[2]; [7]
  EC50: 8.5 ± 5.6 µM
[2]; [8]
  EC50: 13 ± 8 µM

## O=C(NCc1cocn1)c1cc(F)cc(C(F)(F)F)c1 [Compound 61, 3-Fluoro-N-(Oxazol-4-ylmethyl)-5-(trifluoromethyl)benzamide]
[1]; [3]
  EC50: > 100 µM
[2]; [4]
  EC50: > 100 µM

## Cc1cc(CNC(=O)c2cc(F)c(F)c(C(F)(F)F)c2)c(C)s1 [Compound 35, N-((2,5-Dimethylthiophen-3-yl)methyl)-3,4-difluoro-5-(trifluoromethyl)benzamide]
In vitro
  CC50: > 100 µM
[1]; [5]
  EC50: 0.2 ± 0.05 µM
[1]; [6]
  EC50: 0.89 ± 0.13 µM
MDCK cells
  Cytotoxicity MCC, Microscopy: >100 µM
[2]; [7]
  EC50: 0.22 ± 0.03 µM
[2]; [8]
  EC50: 0.86 ± 0.41 µM

## O=C(NCc1ccsc1)c1cc(Cl)cc(C(F)(F)F)c1 [Compound 50, 3-Chloro-N-(Thiophen-3-ylmethyl)-5-(trifluoromethyl)benzamide]
In vitro
  CC50: 70 ± 2 µM
[1]
  ΔΔG (exp), change VF-57a → labelled compound: 0.8 kcal/mol
  ΔΔG (exp), change labelled compound → VF-57a: –0.8 kcal/mol
[1]; [5]
  EC50: 1.1 ± 0.5 µM
[1]; [6]
  EC50: 2.1 µM
MDCK cells
  Cytotoxicity MCC, Microscopy: 100 ± 0 µM
[2]; [7]
  EC50: 2 ± 1 µM
[2]; [8]
  EC50: 1 ± 0.6 µM

## Cc1cc(CNC(=O)c2cccc(C(F)(F)F)c2)c(C)s1 [Compound 31, N-[(2,5-Dimethylthiophen-3-yl)methyl]-3-(trifluoromethyl)benzamide]
[1]; [3]
  EC50: > 100 µM
[2]; [4]
  EC50: > 100 µM

## Cc1cc(CNC(=O)c2cccc(Br)c2)c(C)s1 [Compound 33, 3-Bromo-N-[(2,5-dimethylthiophen-3-yl)methyl]benzamide]
[1]; [3]
  EC50: > 100 µM
[2]; [4]
  EC50: > 100 µM

## Cc1cc(CNC(=O)c2ccc(Cl)cc2)c(C)s1 [Compound 41, 4-Chloro-N-((2,5-dimethylthiophen-3-yl)methyl)benzamide]
[1]; [3]
  EC50: > 100 µM
[2]; [4]
  EC50: > 100 µM

## Cc1cc(CNC(=O)c2cc(F)c(F)c(C(F)(F)F)c2)cs1 [Compound 51, 3,4-Difluoro-N-((5-methylthiophen-3-yl)methyl)-5-(trifluoromethyl)benzamide]
In vitro
  CC50: 24 ± 2 µM
[1]; [5]
  EC50: 5.3 ± 0.8 µM
[1]; [6]
  EC50: > 100 µM
MDCK cells
  Cytotoxicity MCC, Microscopy: 33 ± 0 µM
[2]; [7]
  EC50: 2.9 ± 1.1 µM
[2]; [8]
  EC50: 3.5 ± 1.2 µM

## O=C(NCc1ccncc1)c1cc(F)cc(C(F)(F)F)c1 [Compound 59, 3-Fluoro-N-(Pyridin-4-ylmethyl)-5-(trifluoromethyl)benzamide]
[1]; [3]
  EC50: > 100 µM
[2]; [4]
  EC50: > 100 µM

## Cc1ccc(C(=O)NCc2cc(C)sc2C)cc1 [Compound 42, N-((2,5-Dimethylthiophen-3-yl)methyl)-4-methylbenzamide]
[1]; [3]
  EC50: > 100 µM
[2]; [4]
  EC50: > 100 µM

## O=C(NCc1ccon1)c1cc(F)cc(C(F)(F)F)c1 [Compound 58, 3-Fluoro-N-(Isoxazol-3-ylmethyl)-5-(trifluoromethyl)benzamide]
[1]; [3]
  EC50: > 100 µM
[2]; [4]
  EC50: > 100 µM
